Measurements taken from PubChem BioAssay AID1963837 (Molecular Pharmacology Branch, DTP, NCI, 2024).

Each compound was assayed on 843126-344-R-J1-PDC complex spheroid viability (assay: Anticancer human tumor 843126-344-R-J1-PDC patient-derived melanoma cell line growth inhibition [POLQ]). Details: second compound 0.0316 µM; first compound 1 µM; hits give low values.
Method in brief: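 Growth inhibition in 3D: complex spheroids (tumor PDC, HUVEC, MSC) treated with POLQ inhibitor combinations; where Cmax unknown, highest tested concentration 10 microM, except SN-38 at 1 microM.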
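Note: spheroids exposed to drugs for seven days before readout.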

Compound | viability, T/C
CCc1c2c(nc3ccc(O)cc13)-c1cc3c(c(=O)n1C2)COC(=O)[C@]3(O)CC + COC1C(OC(N)=O)C(O)C(Oc2ccc3c(O)c(NC(=O)c4ccc(O)c(CC=C(C)C)c4)c(=O)oc3c2C)OC1(C)C | 42.7%
O=c1[nH]cc(F)c(=O)[nH]1 + Nc1ccc(C#CCN(C(=O)Cc2ncc(C(F)(F)F)cc2C(F)(F)F)c2ccc(F)cc2)nn1 | 92.9%
COc1cc2cc(C(=O)CCC(=O)O)sc2cc1OC + COC1C(OC(N)=O)C(O)C(Oc2ccc3c(O)c(NC(=O)c4ccc(O)c(CC=C(C)C)c4)c(=O)oc3c2C)OC1(C)C | 89.6%

Same assay, conditions: second compound 0.0316 µM; first compound 3.16 µM; hits give low values

Compound | viability, T/C
COc1cc(C2c3cc4c(cc3C(OC3OC5COC(C)OC5C(O)C3O)C3COC(=O)C23)OCO4)cc(OC)c1O (configuration not stated) + Nc1ccc(C#CCN(C(=O)Cc2ncc(C(F)(F)F)cc2C(F)(F)F)c2ccc(F)cc2)nn1 | 58.3%
O=c1[nH]cc(F)c(=O)[nH]1 + Cc1cccc(N(C)C(=O)C2C(O)CCN2c2nc(C)cc(C(F)(F)F)c2C#N)c1 | 87.3%
O=c1[nH]cc(F)c(=O)[nH]1 + Nc1ccc(C#CCN(C(=O)Cc2ncc(C(F)(F)F)cc2C(F)(F)F)c2ccc(F)cc2)nn1 | 95.4%
COc1cc2cc(C(=O)CCC(=O)O)sc2cc1OC + COC1C(OC(N)=O)C(O)C(Oc2ccc3c(O)c(NC(=O)c4ccc(O)c(CC=C(C)C)c4)c(=O)oc3c2C)OC1(C)C | 94.1%

Same assay, conditions: second compound 0.0316 µM; first compound 10 µM; hits give low values

Compound | viability, T/C
COc1cc(C2c3cc4c(cc3C(OC3OC5COC(C)OC5C(O)C3O)C3COC(=O)C23)OCO4)cc(OC)c1O (configuration not stated) + Nc1ccc(C#CCN(C(=O)Cc2ncc(C(F)(F)F)cc2C(F)(F)F)c2ccc(F)cc2)nn1 | 49.5%
O=c1[nH]cc(F)c(=O)[nH]1 + Cc1cccc(N(C)C(=O)C2C(O)CCN2c2nc(C)cc(C(F)(F)F)c2C#N)c1 | 79.3%
O=c1[nH]cc(F)c(=O)[nH]1 + Nc1ccc(C#CCN(C(=O)Cc2ncc(C(F)(F)F)cc2C(F)(F)F)c2ccc(F)cc2)nn1 | 85.5%
COc1cc2cc(C(=O)CCC(=O)O)sc2cc1OC + COC1C(OC(N)=O)C(O)C(Oc2ccc3c(O)c(NC(=O)c4ccc(O)c(CC=C(C)C)c4)c(=O)oc3c2C)OC1(C)C | 87.2%

Same assay, conditions: second compound 0.1 µM; first compound 0.00316 µM; hits give low values

Compound | viability, T/C
COc1cccc(OCCCN)c1-c1cc(Nc2cnc(C#N)cn2)n[nH]1 + Nc1ccc(C#CCN(C(=O)Cc2ncc(C(F)(F)F)cc2C(F)(F)F)c2ccc(F)cc2)nn1 | 91.9%
C=CCn1c(=O)c2cnc(Nc3ccc(N4CCN(C)CC4)cc3)nc2n1-c1cccc(C(C)(C)O)n1 + COC1C(OC(N)=O)C(O)C(Oc2ccc3c(O)c(NC(=O)c4ccc(O)c(CC=C(C)C)c4)c(=O)oc3c2C)OC1(C)C | 93.7%
CCc1c2c(nc3ccc(O)cc13)-c1cc3c(c(=O)n1C2)COC(=O)[C@]3(O)CC + COC1C(OC(N)=O)C(O)C(Oc2ccc3c(O)c(NC(=O)c4ccc(O)c(CC=C(C)C)c4)c(=O)oc3c2C)OC1(C)C | 66.5%

Same assay, conditions: second compound 0.1 µM; first compound 0.01 µM; hits give low values

Compound | viability, T/C
COc1cccc(OCCCN)c1-c1cc(Nc2cnc(C#N)cn2)n[nH]1 + Nc1ccc(C#CCN(C(=O)Cc2ncc(C(F)(F)F)cc2C(F)(F)F)c2ccc(F)cc2)nn1 | 71.2%
C=CCn1c(=O)c2cnc(Nc3ccc(N4CCN(C)CC4)cc3)nc2n1-c1cccc(C(C)(C)O)n1 + COC1C(OC(N)=O)C(O)C(Oc2ccc3c(O)c(NC(=O)c4ccc(O)c(CC=C(C)C)c4)c(=O)oc3c2C)OC1(C)C | 90.4%
CCc1c2c(nc3ccc(O)cc13)-c1cc3c(c(=O)n1C2)COC(=O)[C@]3(O)CC + COC1C(OC(N)=O)C(O)C(Oc2ccc3c(O)c(NC(=O)c4ccc(O)c(CC=C(C)C)c4)c(=O)oc3c2C)OC1(C)C | 52.1%

Same assay, conditions: second compound 0.1 µM; first compound 0.0316 µM; hits give low values

Compound | viability, T/C
COc1cc(C2c3cc4c(cc3C(OC3OC5COC(C)OC5C(O)C3O)C3COC(=O)C23)OCO4)cc(OC)c1O (configuration not stated) + Nc1ccc(C#CCN(C(=O)Cc2ncc(C(F)(F)F)cc2C(F)(F)F)c2ccc(F)cc2)nn1 | 97.1%
COc1cccc(OCCCN)c1-c1cc(Nc2cnc(C#N)cn2)n[nH]1 + Nc1ccc(C#CCN(C(=O)Cc2ncc(C(F)(F)F)cc2C(F)(F)F)c2ccc(F)cc2)nn1 | 53%
O=c1[nH]cc(F)c(=O)[nH]1 + Cc1cccc(N(C)C(=O)C2C(O)CCN2c2nc(C)cc(C(F)(F)F)c2C#N)c1 | 99.8%
C=CCn1c(=O)c2cnc(Nc3ccc(N4CCN(C)CC4)cc3)nc2n1-c1cccc(C(C)(C)O)n1 + COC1C(OC(N)=O)C(O)C(Oc2ccc3c(O)c(NC(=O)c4ccc(O)c(CC=C(C)C)c4)c(=O)oc3c2C)OC1(C)C | 99.5%
CCc1c2c(nc3ccc(O)cc13)-c1cc3c(c(=O)n1C2)COC(=O)[C@]3(O)CC + COC1C(OC(N)=O)C(O)C(Oc2ccc3c(O)c(NC(=O)c4ccc(O)c(CC=C(C)C)c4)c(=O)oc3c2C)OC1(C)C | 71.4%
O=c1[nH]cc(F)c(=O)[nH]1 + Nc1ccc(C#CCN(C(=O)Cc2ncc(C(F)(F)F)cc2C(F)(F)F)c2ccc(F)cc2)nn1 | 103%
COc1cc2cc(C(=O)CCC(=O)O)sc2cc1OC + COC1C(OC(N)=O)C(O)C(Oc2ccc3c(O)c(NC(=O)c4ccc(O)c(CC=C(C)C)c4)c(=O)oc3c2C)OC1(C)C | 97.5%

Same assay, conditions: second compound 0.1 µM; first compound 0.1 µM; hits give low values

Compound | viability, T/C
COc1cc(C2c3cc4c(cc3C(OC3OC5COC(C)OC5C(O)C3O)C3COC(=O)C23)OCO4)cc(OC)c1O (configuration not stated) + Nc1ccc(C#CCN(C(=O)Cc2ncc(C(F)(F)F)cc2C(F)(F)F)c2ccc(F)cc2)nn1 | 77.8%
COc1cccc(OCCCN)c1-c1cc(Nc2cnc(C#N)cn2)n[nH]1 + Nc1ccc(C#CCN(C(=O)Cc2ncc(C(F)(F)F)cc2C(F)(F)F)c2ccc(F)cc2)nn1 | 53.9%
O=c1[nH]cc(F)c(=O)[nH]1 + Cc1cccc(N(C)C(=O)C2C(O)CCN2c2nc(C)cc(C(F)(F)F)c2C#N)c1 | 98.3%
C=CCn1c(=O)c2cnc(Nc3ccc(N4CCN(C)CC4)cc3)nc2n1-c1cccc(C(C)(C)O)n1 + COC1C(OC(N)=O)C(O)C(Oc2ccc3c(O)c(NC(=O)c4ccc(O)c(CC=C(C)C)c4)c(=O)oc3c2C)OC1(C)C | 82.8%
CCc1c2c(nc3ccc(O)cc13)-c1cc3c(c(=O)n1C2)COC(=O)[C@]3(O)CC + COC1C(OC(N)=O)C(O)C(Oc2ccc3c(O)c(NC(=O)c4ccc(O)c(CC=C(C)C)c4)c(=O)oc3c2C)OC1(C)C | 69.2%
O=c1[nH]cc(F)c(=O)[nH]1 + Nc1ccc(C#CCN(C(=O)Cc2ncc(C(F)(F)F)cc2C(F)(F)F)c2ccc(F)cc2)nn1 | 110%
COc1cc2cc(C(=O)CCC(=O)O)sc2cc1OC + COC1C(OC(N)=O)C(O)C(Oc2ccc3c(O)c(NC(=O)c4ccc(O)c(CC=C(C)C)c4)c(=O)oc3c2C)OC1(C)C | 112%

Same assay, conditions: second compound 0.1 µM; first compound 0.316 µM; hits give low values

Compound | viability, T/C
COc1cc(C2c3cc4c(cc3C(OC3OC5COC(C)OC5C(O)C3O)C3COC(=O)C23)OCO4)cc(OC)c1O (configuration not stated) + Nc1ccc(C#CCN(C(=O)Cc2ncc(C(F)(F)F)cc2C(F)(F)F)c2ccc(F)cc2)nn1 | 92%
COc1cccc(OCCCN)c1-c1cc(Nc2cnc(C#N)cn2)n[nH]1 + Nc1ccc(C#CCN(C(=O)Cc2ncc(C(F)(F)F)cc2C(F)(F)F)c2ccc(F)cc2)nn1 | 45.1%
O=c1[nH]cc(F)c(=O)[nH]1 + Cc1cccc(N(C)C(=O)C2C(O)CCN2c2nc(C)cc(C(F)(F)F)c2C#N)c1 | 96.5%
C=CCn1c(=O)c2cnc(Nc3ccc(N4CCN(C)CC4)cc3)nc2n1-c1cccc(C(C)(C)O)n1 + COC1C(OC(N)=O)C(O)C(Oc2ccc3c(O)c(NC(=O)c4ccc(O)c(CC=C(C)C)c4)c(=O)oc3c2C)OC1(C)C | 85.7%
CCc1c2c(nc3ccc(O)cc13)-c1cc3c(c(=O)n1C2)COC(=O)[C@]3(O)CC + COC1C(OC(N)=O)C(O)C(Oc2ccc3c(O)c(NC(=O)c4ccc(O)c(CC=C(C)C)c4)c(=O)oc3c2C)OC1(C)C | 63.8%
O=c1[nH]cc(F)c(=O)[nH]1 + Nc1ccc(C#CCN(C(=O)Cc2ncc(C(F)(F)F)cc2C(F)(F)F)c2ccc(F)cc2)nn1 | 103%
